Molecules are shown by their SMILES.

Broadly, the IC50 is the concentration at which inhibition is half-maximal.

The subject of experiment [1] is HBL1 cells. Nature of the experiment: Growth inhibition, CellTiter-Glo, 5 days. Type of experiment: cell-based. As to conditions: HBL1, 120 h; ABC DLBCL, CD79B mutation; 5 days treatment; read-out: growth inhibitory IC50, HBL1. The source says:
(§1) Two pharmacological PKC inhibitors: (i) the pan-PKC inhibitor, Sotrastaurin, also known as AEB071, and (ii) the PKCa/b-selective compound, 3-[2-chloro-7-[(dimethylamino)methyl]-1-naphthalenyl]-4-[7-[2-(2-methoxyethoxy)ethoxy]-1H-indol-3-yl]-1H-pyrrole-2,5-dione (referred to herein as “Compound B”), were used to evaluate the proliferation of several diffuse large B cell lymphoma (DLBCL) lines. The IKKb-selective inhibitors N-(6-chloro-7-methoxy-9H-β-carbolin-8-yl)-2-methylnicotinamide (referred to herein as “MLN120B”) and N-[(2R,6R)-2,6-dimethyl-4-piperidinyl]-4-(7-fluoro-1H-indol-3-yl)-2-pyrimidinamine (referred to herein as “Compound A”) were used as control compounds. ABC DLBCL cell lines (OCI-LY3, OCI-LY10, HBL1, U2932, TMD8, Su-DHL2) and GC DLBCL cell lines (Su-DHL4, DB, K-422) were treated for 5 days with PKC inhibitors (A) Sotrastaurin (AEB071) or (B) Compound B; IKKb inhibitors (C) MLN120B or (D) Compound A. Cells were plated in 96-well plates (Corning, #3358) at 5000 cells/well in 100 μL and treated with DMSO or inhibitors at concentrations ranging from 160 nM to 20 μM (2-fold dilutions). Following 5 days of treatment, cells were lysed with CellTiter-Glo® Luminescent Cell Viability Assay reagent (Promega, G7573), lysates were transferred to opaque 96-well plates (Corning, #3971), and luminescence signal was read using the Envision. Percent growth was calculated relative to median DMSO signal.
(§2) While all ABC DLBCL cell lines were sensitive to IKK inhibitors, their response to PKC inhibitors varied strongly (Table 1A below). The cell lines that are insensitive to PKC inhibitors, OCI-Ly3 and Su-DHL2, have reported mutations in CARD11 and A20, respectively. […] The fact that these oncogenic lesions are thought to function downstream of PKCβ in CBM-NFkB signaling provides a molecular rationale for their insensitivity. […] See, Compagno, M., et al, “Mutations of multiple genes cause deregulation of NF-κB in diffuse large B-cell lymphoma” Nature, 459 (7247), 717-722 (2009)). […] Tables 1A and 1B below show the growth inhibitory IC50 values, which were determined by measuring ATP concentration (Cell Titer Glo), for the indicated compounds in the indicated cell lines. IC50 values were determined as the concentration of compound that leads to 50% reduction of cell growth.

Experiment [2] relates to U2392 cells. The experiment can be described thus: Growth inhibition, CellTiter-Glo, 5 days. The settings on record: 120 h; ABC DLBCL, TAK1 mutation; 5 days treatment; read-out: growth inhibitory IC50, U2392. Type of experiment: cell-based.
Source text: as §1, §2
A general note: ATP-based viability assays read luminescence as a measure of living cells.

Experiment [3] concerns DB cells. Nature of the experiment: Growth inhibition, CellTiter-Glo, 5 days. Type of experiment: cell-based. The settings on record: Homo sapiens, 120 h, GC DLBCL, no NFkB mutation, 5 days treatment, read-out: growth inhibitory IC50, DB.
Source text: as §1, §2

Experiment [4] has as its system Su-DHL2 cells. The experiment can be described thus: Growth inhibition, CellTiter-Glo, 5 days. Type of experiment: cell-based. The settings on record: Homo sapiens, SU-DHL-2, 120 h; ABC DLBCL, A20 mutation; 5 days treatment; read-out: growth inhibitory IC50, Su-DHL2.
Source text: as §1, §2

Experiment [5] relates to OCI-Ly10 cells. The experiment can be described thus: Growth inhibition, CellTiter-Glo, 5 days. Type of experiment: cell-based. As to conditions: Homo sapiens, OCI-Ly10, 120 h; ABC DLBCL, CD79A mutation; 5 days treatment; read-out: growth inhibitory IC50, OCI-Ly10.
Source text: as §1, §2

In experiment [6] the test system is Su-DHL4 cells. Nature of the experiment: Growth inhibition, CellTiter-Glo, 5 days. Type of experiment: cell-based. The settings on record: Homo sapiens, SU-DHL-4, 120 h; GC DLBCL, no NFkB mutation; 5 days treatment; read-out: growth inhibitory IC50, Su-DHL4.
Source text: as §1, §2

Experiment [7] relates to OCI-Ly3 cells. Nature of the experiment: Growth inhibition, CellTiter-Glo, 5 days. Type of experiment: cell-based. As to conditions: Homo sapiens, OCI-Ly3, 120 h; ABC DLBCL, CARD11 mutation; 5 days treatment; read-out: growth inhibitory IC50, OCI-Ly3.
Source text: as §1, §2

The test system of experiment [8] is K422 cells. Nature of the experiment: Growth inhibition, CellTiter-Glo, 5 days. Type of experiment: cell-based. The settings on record: 120 h; GC DLBCL, no NFkB mutation; 5 days treatment; read-out: growth inhibitory IC50, K422.
Source text: as §1, §2

The subject of experiment [9] is TMD8 cells. The experiment can be described thus: Growth inhibition, CellTiter-Glo, 5 days. Type of experiment: cell-based. As to conditions: Homo sapiens, TMD8, 120 h; ABC DLBCL, CD79B mutation; 5 days treatment; read-out: growth inhibitory IC50, TMD8.
Source text: as §1, §2

The test system of experiment [10] is IL-10 mRNA in TMD8 xenograft tumor. Nature of the experiment: IL-10 mRNA expression in TMD8 xenograft tumor tissue (PD arm). Type of experiment: in vivo, SCID-beige mice. The procedure:
To confirm that the growth inhibitory effect in response to PKC inhibition is mediated through modulation of NFkB pathway signaling, the mRNA expression of IL-10 was monitored in response to AEB071 treatment in a PD arm of the in vivo study. Mice were implanted with TMD8 cells as described above, and when the tumor volume reached ˜160 mm^3, a single dose of 80 mg/kg AEB071 was administered. Tumor samples were harvested and snap frozen in liquid nitrogen, at 1 hour or 8 hours following the single does of AEB071. Tissue samples were homogenized and lysed in RLT buffer (Qiagen, #74104) with Reagent DX (Qiagen, 19088) using the TissueLyser II (Qiagen, 85300). Total RNA was harvested using the RNeasy kit (Qiagen, #74104) and cDNA was made from 1 μg total RNA using the High Capacity cDNA kit (ABI, #4368814), according to manufacturer's protocols. The IL-10 Taqman probe (ABI, Hs00174086_m1) was used with Gene Expression Master Mix (ABI, 4369510) to determine the amount of mRNA expression for IL-10 relative to an endogenous control gene (ABI: TBP, 4326322E) and the DMSO control using the delta-delta Ct method. […] Consistent with the in vitro kinetics of NFkB target gene downregulation by AEB071, IL-10 mRNA expression was unaffected after just 1 hour of treatment (see, FIG. 3A).

Regarding `CN1CCN(c2nc(C3=C(c4c[nH]c5ccccc45)C(=O)NC3=O)c3ccccc3n2)CC1` [AEB071, 3-(1H-Indol-3-yl)-4-[2-(4-methylpiperazin-1-yl)quinazolin-4-yl]-1H-pyrrole-2,5-dione], the half-maximal inhibitory concentration (IC50) is 0.5 µM in [1]; 5 µM in [2]; > 20 µM in experiment [3]; > 20 µM in experiment [4]; 1.3 µM in experiment [5]; > 20 µM in [6]. For the same molecule, the 50% inhibitory concentration (IC50) is > 20 µM in experiment [7], > 20 µM in experiment [8] and 0.2 µM in experiment [9]. Further, the “IL-10 mRNA expression in xenograft tumor tissue” value was “unaffected” in experiment [10] (1 hour after single dose of 80 mg/kg) and “decrease” in experiment [10] (8 hours after single dose of 80 mg/kg).

The values above are taken from patent publication US8748428B2, “Use of a PKC inhibitor” (Novartis AG, priority 2010, dated 2014).
